# Where two headings read alike, the source gives them in different places.
# Tests used:
# [1] = pKa of sulfonamide amino group of inhibitor; cited from earlier work
# CA VI [2] = molecular target: T1, CA VI (Homo sapiens, UniProt P23280); settings: FTSA, pH 7.0, 37 °C; read-out: Kd_obs CA VI; cited from earlier work
# T1 construct: made in house; host or cells: E. coli
# [3] = molecular target: T2, CA VI-mimic (CA II mutant A65T, N67Q, F130Y, V134Q, L203T) (Homo sapiens, UniProt P00918, A65T/F130Y/L203T/N67Q/V134Q); assay: Fluorescent thermal shift assay (FTSA), inhibitor binding to CA VI-mimic; settings: for Kd / difference between Kd_obs and Kd_intr for CA VI-mimic: FTSA; for Kd: read-out: Kd_obs CA VI-mimic; for difference between Kd_obs and Kd_intr for CA VI-mimic: 37 °C
# T2 construct: encoding full length CA II (1-260), was used in site-directed mutagenesis; made in house; host or cells: E. coli BL21(DE3)
# CA II = molecular target: T3, CA II (Homo sapiens, UniProt P00918); settings: FTSA, pH 7.0, 37 °C; read-out: Kd_obs CA II; cited from earlier work
# T3 construct: encoding full length CA II (1-260), was used in site-directed mutagenesis; made in house; host or cells: E. coli
# CA VI [4] = molecular target: T1, CA VI; assay: Stopped-flow CO2 hydration assay (SFA), inhibition of CA VI; assay type: biochemical
# [5] = SFA pH 7.5, measured at 23 °C, extrapolated to 37 °C by van't Hoff equation, read-out: Kd_obs CA VI by SFA (in parentheses)
# [6] = SFA, pH 7.5, 23 °C, read-out: Kd_obs CA VI by SFA
# T1 sequence (P23280 18-308): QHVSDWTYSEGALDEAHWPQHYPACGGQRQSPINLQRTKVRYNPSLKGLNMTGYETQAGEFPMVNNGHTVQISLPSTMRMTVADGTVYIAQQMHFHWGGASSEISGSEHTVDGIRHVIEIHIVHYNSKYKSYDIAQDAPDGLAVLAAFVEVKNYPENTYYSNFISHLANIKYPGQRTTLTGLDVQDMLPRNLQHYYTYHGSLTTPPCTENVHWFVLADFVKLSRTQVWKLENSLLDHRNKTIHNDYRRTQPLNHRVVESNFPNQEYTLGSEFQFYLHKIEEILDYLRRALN
SMILES,pKa_SA [1],Kd (CA VI [2]) [nM],further results
NS(=O)(=O)c1c(F)c(F)c(SCCC(=O)O)c(F)c1F [Inhibitor 19],7.97,500,–
NS(=O)(=O)c1c(F)c(F)c(SCCc2ccccc2)c(F)c1N1CCOCC1 [Inhibitor 17],8.67,100000,Kd [3]: 100000 nM
NS(=O)(=O)c1c(F)c(F)c(S(=O)(=O)CCO)c(F)c1F [Inhibitor 10],7.28,–,difference between Kd_obs and Kd_intr for CA VI-mimic [3]: lower than 10 fold
CCCc1cnc(SCC(=O)c2ccc(S(N)(=O)=O)c(Cl)c2)nc1 [Inhibitor 37],8.90,–,–
CCOc1ccc2nc(S(N)(=O)=O)sc2c1 [Inhibitor 2],7.82,–,–
C=CCNc1nc(-c2ccc(S(N)(=O)=O)c(Cl)c2)cs1 [Inhibitor 46],9.40,17000,"Kd (CA II): 100 nM; Kd ([3]; pH 7.0, 37 °C): 1100 nM"
NS(=O)(=O)c1c(F)c(F)c(S(=O)(=O)CCO)c(NC2CCCCCCC2)c1F [Inhibitor 25],8.01,–,–
NS(=O)(=O)c1c(F)c(F)c(SCc2ccccc2)c(F)c1F [Inhibitor 32],8.53,330,stronger intrinsic binding to CA VI-mimic than inhibitor 9 ([3]; Kd_intr): 4 fold; stronger intrinsic binding to CA VI-mimic than inhibitor 15 ([3]; Kd_intr): 2 fold
NS(=O)(=O)c1c(F)c(F)c(S(=O)(=O)CCc2ccccc2)c(F)c1F [Inhibitor 26],7.22,140,difference between Kd_obs and Kd_intr for CA VI-mimic [3]: lower than 10 fold
NS(=O)(=O)c1c(F)c(F)c(S(=O)(=O)CCc2ccccc2)c(NCc2ccccc2)c1F [Inhibitor 29],7.87,110,"Kd ([3]; pH 7.0, 37 °C): 200 nM"
Cc1cc(C)nc(SCC(=O)c2cccc(S(N)(=O)=O)c2)n1 [Inhibitor 35],9.40,–,–
CCCSc1ccc(S(N)(=O)=O)cc1 [Inhibitor 23],10.2,830,Kd (CA VI [4]; [5]): 3900 nM; Kd (CA VI [4]; [6]): 1800 nM; difference between Kd_obs and Kd_intr for CA VI-mimic [3]: 3200 fold
NS(=O)(=O)c1c(F)c(F)c(SCCO)c(F)c1F [Inhibitor 6],8.14,–,–
NS(=O)(=O)c1ccc(C(=O)CSc2ccccc2)cc1Cl [Inhibitor 34],8.70,1100,"Kd (CA II): 5.6 nM; Kd ([3]; pH 7.0, 37 °C): 330 nM"
NS(=O)(=O)c1c(F)c(F)c(S(=O)(=O)CCc2ccccc2)c(N[C@H](c2ccccc2)[C@H](O)c2ccccc2)c1F [Inhibitor 31],7.87,1000,"Kd (CA II): 33 nM; Kd ([3]; pH 7.0, 37 °C): 2000 nM; weakening of intrinsic binding to CA VI-mimic relative to comparison compound ([3]; Kd_intr, 30 vs 23, 6 vs 22, 19 vs 22, 31 vs 26): 9 fold"
COc1ccc(CNc2c(F)c(SCCO)c(F)c(F)c2S(N)(=O)=O)cc1OC [Inhibitor 24],8.67,11000,"Kd (CA II): 1300 nM; Kd ([3]; pH 7.0, 37 °C): 5000 nM"
NS(=O)(=O)c1c(F)c(F)c(N2CCOCC2)c(F)c1F [Inhibitor 5],8.61,1100,–
NS(=O)(=O)c1c(F)c(F)c(Sc2ccccc2)c(F)c1F [Inhibitor 9],7.80,200,–
NS(=O)(=O)c1ccc(C(=O)Cn2c(Cc3ccccc3)nc3ccccc32)cc1Cl [Inhibitor 42],8.70,1400,"Kd ([3]; pH 7.0, 37 °C): 330 nM"
NS(=O)(=O)c1c(F)c(F)c(S(=O)(=O)CCc2ccccc2)c(NC2Cc3ccccc3C2)c1F [Inhibitor 27],7.87,2000,"Kd (CA II): 35 nM; Kd ([3]; pH 7.0, 37 °C): 1000 nM"
NS(=O)(=O)c1c(F)c(F)c(S(=O)(=O)CCO)c(F)c1NCc1ccccc1 [Inhibitor 11],7.85,130,"Kd (CA II): 83 nM; Kd ([3]; pH 7.0, 37 °C): 140 nM"
CCCSc1c(F)c(F)c(S(N)(=O)=O)c(F)c1F [Inhibitor 22],8.15,140,–

SMILES,pKa_SA [1],Kd (CA VI [2]) [nM],further results
CC(C)Nc1c(F)c(SCCc2ccccc2)c(F)c(F)c1S(N)(=O)=O [Inhibitor 20],8.67,3300,"Kd ([3]; pH 7.0, 37 °C): 2500 nM"
Cc1cc(=O)[nH]c(SCC(=O)c2ccc(S(N)(=O)=O)c(Cl)c2)n1 [Inhibitor 39],8.90,–,–
NS(=O)(=O)c1cccc(C(=O)Cn2c(Cc3ccccc3)nc3ccccc32)c1 [Inhibitor 43],9.60,10000,"Kd ([3]; pH 7.0, 37 °C): 3300 nM"
CCOC(=O)c1cnc(SCC(=O)c2ccc(Cl)c(S(N)(=O)=O)c2)[nH]c1=O [Inhibitor 33],8.90,–,–
Cc1cc(C)nc(Sc2c(F)c(F)c(S(N)(=O)=O)c(F)c2F)n1 [Inhibitor 14],8.02,1000,Kd (CA VI [4]; [5]): 630 nM; Kd (CA VI [4]; [6]): 290 nM
NS(=O)(=O)c1ccc(SCCO)cc1 [Inhibitor 30],9.96,–,–
NS(=O)(=O)c1cccc(C(=O)CSc2nc3ccccc3s2)c1 [Inhibitor 44],9.60,3300,"Kd (CA II): 140 nM; Kd ([3]; pH 7.0, 37 °C): 500 nM"
NS(=O)(=O)c1c(F)c(F)c(Sc2nc3ccccc3s2)c(F)c1F [Inhibitor 13],7.83,200,–
CCCc1cnc(SCC(=O)c2ccc(S(N)(=O)=O)cc2)nc1 [Inhibitor 38],9.40,–,–
NS(=O)(=O)c1ccc(C(=O)Cn2cnc3ccccc32)cc1Cl [Inhibitor 41],8.30,3300,–
NS(=O)(=O)c1c(F)c(F)c(F)c(F)c1F [Inhibitor 4],8.12,430,–
NS(=O)(=O)c1cccc(C(=O)Cn2cnc3ccccc32)c1 [Inhibitor 40],9.60,6700,"Kd (CA II): 3600 nM; Kd ([3]; pH 7.0, 37 °C): 3300 nM"
NNc1c(F)c(F)c(S(N)(=O)=O)c(F)c1F [Inhibitor 7],8.84,1000,–
NS(=O)(=O)c1ccc(SCCc2ccccc2)cc1 [Inhibitor 16],10.1,1100,difference between Kd_obs and Kd_intr for CA VI-mimic [3]: 2500 fold
NS(=O)(=O)c1c(F)c(F)c(S(=O)(=O)c2ccccc2)c(F)c1F [Inhibitor 18],7.07,160,difference between Kd_obs and Kd_intr for CA VI-mimic [3]: lower than 10 fold
COc1ccc(CNc2c(F)c(SCCc3ccccc3)c(F)c(F)c2S(N)(=O)=O)cc1OC [Inhibitor 21],8.67,20000,"Kd (CA II): 1800 nM; Kd ([3]; pH 7.0, 37 °C): 3300 nM"
CC(=O)/N=c1/sc(S(N)(=O)=O)nn1C [Inhibitor 3],6.86,–,–
NS(=O)(=O)c1c(F)c(F)c(Sc2nc(-c3ccccc3)c(-c3ccccc3)[nH]2)c(F)c1F [Inhibitor 12],7.69,140,–
NS(=O)(=O)c1c(F)c(F)c(NCc2ccccc2)c(F)c1F [Inhibitor 8],8.47,1200,–
CCc1cnc(SCC(=O)c2ccc(S(N)(=O)=O)c(Cl)c2)nc1 [Inhibitor 36],8.90,–,–
NS(=O)(=O)C(F)(F)F [Inhibitor 1],6.02,–,–
NS(=O)(=O)c1c(F)c(F)c(SCCc2ccccc2)c(F)c1F [Inhibitor 15],8.05,400,–

# Reference: PMC6722136, “Engineered Carbonic Anhydrase VI-Mimic Enzyme Switched the Structure and Affinities of Inhibitors” (Scientific Reports, 2019)
